# Source: patent US9193731B2, “Antimicrobial compounds and methods of making and using the same” (Melinta Therapeutics, Inc., priority 2009, dated 2015)
# Structures can show the parent of a compound that is named as a salt.
# Tested on: Escherichia coli strain ATCC25922
# Assay: standard microdilution assay to determine minimum inhibitory concentrations (MICs)
# Format: cell-based
# Settings: Escherichia coli strain ATCC25922, microdilution
# Summary of the method: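 E. coli strain ATCC25922 tested per CLSI microdilution methodology (about 100 microliters per well) to find minimum inhibitory concentrations. Activity scored categorically at a 16 micrograms/ml threshold.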
row,SMILES,E. coli ATCC25922 MIC
1,NCCCNCc1ccc(-n2cc3cc(-c4cc(C(=O)N(CCO)CCO)cc(N5CCNCC5)c4)[nH]c3nc2=O)cc1 [Compound 894],− (a “−” indicates that the compound has an MIC value greater than 16 micrograms/ml)
2,Cn1c(CCCN(C2CCNCC2)S(=O)(=O)c2ccc(-c3cc4cn(-c5ccc(CNCCCNC(=N)N)cc5)c(=O)nc4[nH]3)cc2)nc2ccccc21 [Compound 841],+ (a “+” indicates that the compound has an MIC value of 16 micrograms/ml or less)
3,CC(C)(CN)COc1cccc(-c2cc3cn(-c4ccc(CNCCCNC(=N)N)cc4)c(=O)nc3[nH]2)c1 [Compound 1327],+ (a “+” indicates that the compound has an MIC value of 16 micrograms/ml or less)
4,N=C(N)NCCCNCc1ccc(-n2cc3cc(-c4ccc(S(=O)(=O)CCN)cc4)[nH]c3nc2=O)cc1 [Compound 1130],+ (a “+” indicates that the compound has an MIC value of 16 micrograms/ml or less)
5,N=C(N)NCCC(NCc1ccc(-n2cc3cc(-c4ccc(S(=O)(=O)NC5CNC5)cc4)[nH]c3nc2=O)cc1)C(F)(F)F (stereo not drawn) [Compound 1415],+ (a “+” indicates that the compound has an MIC value of 16 micrograms/ml or less)
6,N=C(N)NCCCNCc1ccc(-n2cc3cc(-c4cccc(SCCCN)c4)[nH]c3nc2=O)cc1 [Compound 1405],+ (a “+” indicates that the compound has an MIC value of 16 micrograms/ml or less)
7,N=C(N)NCCCNCc1ccc(-n2cc3cc(-c4ccc(S(=O)(=O)N(CCCn5cc(Cl)cn5)C5CCNCC5)cc4)[nH]c3nc2=O)cc1 [Compound 1003],+ (a “+” indicates that the compound has an MIC value of 16 micrograms/ml or less)
8,NCCCCOc1ccc(-c2cn3cc(-c4ccc(C(=O)N5CCNCC5)cc4)[nH]c3nc2=O)cc1 [Compound 847],− (a “−” indicates that the compound has an MIC value greater than 16 micrograms/ml)
9,NCc1ccc(-n2cc3cc(-c4ccc(S(=O)(=O)N(CC5CC5)C5CCNCC5)cc4)[nH]c3nc2=O)cc1 [Compound 935],− (a “−” indicates that the compound has an MIC value greater than 16 micrograms/ml)
10,N=C(N)N1CCC(NCCCS(=O)(=O)c2ccc(-c3cc4cn(-c5ccc(CNCCCN)cc5)c(=O)nc4[nH]3)cc2)C1 (stereo not drawn) [Compound 1292],+ (a “+” indicates that the compound has an MIC value of 16 micrograms/ml or less)
11,NC(N)=NCCC(=O)NCc1ccc(-n2cc3cc(-c4ccc(S(=O)(=O)N(CCCc5cccnc5)C5CCNCC5)cc4)[nH]c3nc2=O)cc1 [Compound 1190],− (a “−” indicates that the compound has an MIC value greater than 16 micrograms/ml)
12,N=C(N)NCCCNCc1ccc(-n2cc3cc(-c4cccc(S(=O)(=O)N(CC5CC5)C5CCNCC5)c4)[nH]c3nc2=O)cc1 [Compound 1018],+ (a “+” indicates that the compound has an MIC value of 16 micrograms/ml or less)
13,COc1ccc(CCN(C2CCNCC2)S(=O)(=O)c2cccc(-c3cc4cn(-c5ccc(CNCCCN=C(N)N)cc5)c(=O)nc4[nH]3)c2)cc1 [Compound 1226],+ (a “+” indicates that the compound has an MIC value of 16 micrograms/ml or less)
14,N=C(N)NCCCNCc1ccc(-n2cc3cc(-c4cc(CO)cc(OCC(F)CN)c4)[nH]c3nc2=O)cc1 (stereo not drawn) [Compound 2050a],+ (a “+” indicates that the compound has an MIC value of 16 micrograms/ml or less)
15,CC(CN)CN1CCC(c2cc3cn(-c4ccc(CNCCCNC(=N)N)cc4)c(=O)nc3[nH]2)C1 (stereo not drawn) [Compound 2038a],+ (a “+” indicates that the compound has an MIC value of 16 micrograms/ml or less)
16,N=C(N)NCCCN1CC=C(n2cc3cc(-c4ccc(S(=O)(=O)N(CC5COc6ccccc6O5)C5CCNCC5)cc4)[nH]c3nc2=O)CC1 (stereo not drawn) [Compound 984],+ (a “+” indicates that the compound has an MIC value of 16 micrograms/ml or less)
17,CC(=O)NCCN(C1CCNCC1)S(=O)(=O)c1cccc(-c2cc3cn(-c4ccc(CNCCCN=C(N)N)cc4)c(=O)nc3[nH]2)c1 [Compound 1243],+ (a “+” indicates that the compound has an MIC value of 16 micrograms/ml or less)
18,CNCc1ccc(-n2cc3cc(-c4ccc(S(=O)(=O)N(CCCN5CCCCC5)C5CCNCC5)cc4)[nH]c3nc2=O)cc1 [Compound 959],− (a “−” indicates that the compound has an MIC value greater than 16 micrograms/ml)
19,NCCCNC(=O)c1ccc(-n2cc3cc(-c4ccc(S(=O)(=O)NC5CCNCC5)cc4)[nH]c3nc2=O)cc1 [Compound 892],+ (a “+” indicates that the compound has an MIC value of 16 micrograms/ml or less)
20,N=C(N)CCCOc1cccc(-c2cc3cn(-c4ccc(CNCCCNC(=N)N)cc4)c(=O)nc3[nH]2)c1 [Compound 1217],+ (a “+” indicates that the compound has an MIC value of 16 micrograms/ml or less)
21,Nc1nccc(CCCNCc2ccc(-n3cc4cc(-c5ccc(S(=O)(=O)NC6CCNCC6)cc5)[nH]c4nc3=O)cc2)n1 [Compound 1132],− (a “−” indicates that the compound has an MIC value greater than 16 micrograms/ml)
22,N=C(N)NCCCNCc1ccc(-n2cc3cc(-c4cc(CNc5cc(F)cc(F)c5)cc(N5CCNCC5)c4)[nH]c3nc2=O)cc1 [Compound 1043],+ (a “+” indicates that the compound has an MIC value of 16 micrograms/ml or less)
23,CNCc1ccc(-n2cc3cc(-c4ccc(S(=O)(=O)N(CC5CC5)C5CCNCC5)cc4)[nH]c3nc2=O)cc1 [Compound 936],− (a “−” indicates that the compound has an MIC value greater than 16 micrograms/ml)
24,N=C(N)NCCCNCc1ccc(-n2cc3cc(-c4ccc(S(=O)(=O)N(CCCC5CCCC5)C5CCNCC5)cc4)[nH]c3nc2=O)cc1 [Compound 840],+ (a “+” indicates that the compound has an MIC value of 16 micrograms/ml or less)
25,Cc1cc(C)n2nc(CCCN(C3CCNCC3)S(=O)(=O)c3ccc(-c4cc5cn(-c6ccc(CNCCCNC(=N)N)cc6)c(=O)nc5[nH]4)cc3)nc2n1 [Compound 986],− (a “−” indicates that the compound has an MIC value greater than 16 micrograms/ml)
26,N=C(N)NCCCNCc1ccc(-n2cc3cc(-c4ccc(S(=O)(=O)N(Cc5ccc(Cl)c(SC(F)(F)F)c5)C5CCNCC5)cc4)[nH]c3nc2=O)cc1 [Compound 759],+ (a “+” indicates that the compound has an MIC value of 16 micrograms/ml or less)
27,N=C(N)NCCCNCc1ccc(-n2cc3cc(-c4ccc(S(=O)(=O)N(CC5COc6ccccc6O5)C5CCNCC5)cc4)[nH]c3nc2=O)cc1 (stereo not drawn) [Compound 768],+ (a “+” indicates that the compound has an MIC value of 16 micrograms/ml or less)

# Same assay, conditions: Escherichia coli, ATCC25922, Escherichia coli strain ATCC25922, microdilution; read-out: E. coli ATCC25922 MIC
row,SMILES,MIC [µg/mL]
1,N=C(N)NCCCNCc1ccc(-c2cn3cc(-c4ccc(C(=O)N5CC[C@H](F)C5)cc4)[nH]c3nc2=O)cc1 [Compound 673],> 16
2,NCc1ccc(-n2cc3cc(-c4ccc(S(=O)(=O)N(CCCc5ccc(O)cc5)C5CCNCC5)cc4)[nH]c3nc2=O)cc1 [Compound 1081],> 16
3,CN(C)CCCOc1cccc(-c2cc3cn(-c4ccc(CNCCCNC(=N)N)cc4)c(=O)nc3[nH]2)c1 [Compound 1181],< 16
4,N=C(N)NCCCNCc1ccc(-n2cc3cc(-c4ccc(S(=O)(=O)N(Cc5ccc(Cl)c(Cl)c5)C5CCNCC5)cc4)[nH]c3nc2=O)cc1 [Compound 725],< 16
5,NCc1ccc(-n2cc3cc(-c4ccccc4OCCCN4CCNCC4)[nH]c3nc2=O)cc1 [Compound 1117],> 16
6,N=C(N)NCCCNCc1ccc(-c2cn3cc(-c4ccc(C(=O)N5CCC(C(N)=O)C5)cc4)[nH]c3nc2=O)cc1 (stereo not drawn) [Compound 692],> 16
7,N=C(N)NCCCNCc1ccc(-n2cc3cc(C4CCCN(C(=N)N)C4)[nH]c3nc2=O)cc1 (stereo not drawn) [Compound 1211],< 16
8,CC(=O)NCCN(C1CCNCC1)S(=O)(=O)c1cccc(-c2cc3cn(-c4ccc(CN)cc4)c(=O)nc3[nH]2)c1 [Compound 1224],> 16
9,NCc1ccc(-n2cc3cc(-c4ccc(S(=O)(=O)N(CCCN5CCCCC5)C5CCNCC5)cc4)[nH]c3nc2=O)cc1 [Compound 948],> 16
10,CNCc1ccc(-n2cc3cc(-c4ccc(S(=O)(=O)N(CCCC5CCCO5)C5CCNCC5)cc4)[nH]c3nc2=O)cc1 (stereo not drawn) [Compound 1052],> 16
11,N=C(N)NCCCNCc1ccc(-n2cc3cc(CSc4n[nH]c(N)n4)[nH]c3nc2=O)cc1 [Compound 636],> 16
12,NCCCNCc1ccc(-n2cc3cc(CCS(=O)(=O)N(CC4CCOCC4)C4CCNCC4)[nH]c3nc2=O)cc1 [Compound 923],< 16
13,O=C(NC1CCNCC1)c1ccc(-c2cc3cn(-c4ccc(CNCCCCl)cc4)c(=O)nc3[nH]2)cc1F [Compound 254],> 16
14,NCCCNCc1ccc(-c2cn3cc(-c4ccc(C(=O)N5CC6CC5CN6)cc4)[nH]c3nc2=O)cc1 (stereo not drawn) [Compound 742],< 16
15,NCCCNCc1ccc(-n2cc3cc(-c4ccc([C@H]5OC(=O)N[C@@H]5CO)cc4)[nH]c3nc2=O)cc1 [Compound 939],> 16
16,N=C(N)NCCCNCc1ccc(-n2cc3cc(C4CCCN(Cc5ncc[nH]5)C4)[nH]c3nc2=O)cc1 (stereo not drawn) [Compound 2022a],> 16
17,CS(=O)(=O)NCc1cc2cn(-c3ccc(CNCCCNC(=N)N)cc3)c(=O)nc2[nH]1 [Compound 1153],> 16
18,CN(CCO)C(=O)c1ccc(-c2cn3cc(-c4ccc(CNCCCN)cc4)c(=O)nc3[nH]2)cc1 [Compound 771],< 16
19,NCCCCOc1ccc(-c2cn3cc(-c4ccc(Br)cc4)[nH]c3nc2=O)cc1 [Compound 810],> 16

# Same assay, conditions: Escherichia coli, ATCC25922, read-out: E. coli ATCC25922 MIC
row,SMILES,MIC [µg/mL]
1,"NCCCNCc1ccc(-c2cn3c(nc2=O)[nH]c2ccccc23)cc1 [Compound 601, 3-{4-[(3-Amino-propylamino)-methyl]-phenyl}-10H-benzo[4,5]imidazo[1,2-a]pyrimidin-2-one hydrochloride salt]",> 16
2,"N=C(N)NCCCNCc1ccc(-c2cn3c(nc2=O)[nH]c2ccccc23)cc1 [Compound 602, N-{3-[4-(2-Oxo-2,10-dihydro-benzo[4,5]imidazo[1,2-a]pyrimidin-3-yl)-benzylamino]-propyl}-guanidine hydrochloride salt]",< 16
